PMC12040169 (PLOS Biology, 2025)

Test: in vitro
Settings: human, hela cells, % viability

Structure (SMILES)	viability at 28.5 h, 10 µM [%]
Cc1ccc2c(c1)OC(C)(C)CC2NC(=O)C1CCN(C)CC1 (stereo not shown) [CBK307626]	110
Cc1cc(C(=O)N2CCC(F)CC2)n[nH]1 [CBK200277]	109
COc1ccc(CCCC(=O)N2CCC(c3c(C(N)=O)sc4ccccc34)C2)cc1C (stereo not shown) [CBK285848]	94
COc1ccc(CNc2nc(-c3ccc(C)cc3)nn2C(=O)c2cccc([N+](=O)[O-])c2)cc1 [CBK268546]	67.9
O=C(Nc1ccc(S(=O)(=O)Nc2nccc(C3Cc4ccccc4C(=O)O3)n2)cc1)c1ccccc1 (stereo not shown) [CBK267306]	105
CCN(Cc1ccncc1)C(=O)NCc1cccnc1 [CBK145054]	94.6
CCCn1cc(CNC(=O)c2cccc(S(=O)(=O)N3CCCC3)c2)cn1 [CBK307095]	78.5
COc1cccc(-c2cccc(NS(=O)(=O)c3ccc4c(c3)CCC(=O)N4)c2)c1 [CBK286372]	105
O=C(NC(c1ccccc1)c1cccnc1)C1CCN(C(=O)NC2CCCCC2)CC1 (stereo not shown) [CBK060378]	84
Cc1ccc(C(=O)N2CCC(c3nn(C)c4ncccc34)CC2)s1 [CBK284988]	86.1
Cc1cc(C(C)(C)C)cc(S(=O)(=O)Nc2ccc(C(=O)O)c(O)c2)c1C [CBK299820]	88.3
N#Cc1ccc(-c2cnc(N)c(-c3ccc(C(=O)N4CCOCC4)cc3)n2)cc1 [CBK064067T]	116
CC(=O)Nc1ccc(CN(C)c2c(C)nc3ccc(C(=O)N(C)CCN(C)C)cn23)cc1 [CBK147107]	109
COc1ccc(S(=O)(=O)NC[C@H]2C[C@@H]3CC[N@]2C[C@@H]3CN2CCSCC2)cc1 [CBK288769]	86.6
Cc1cc(=O)n2c3c(cc(S(=O)(=O)NC4CC4)cc13)CC2 [CBK218959]	95.9
O=C(O)CNC(=O)CCn1c(-c2ccccc2)cc2ccccc21 [CBK286780]	99.2
COc1cc(C(=O)N2CCC3(CC2)CC(=O)c2ccc(-c4ccccc4)cc2O3)cc(OC)c1C [CBK169037]	89.9
Cc1nc(S)nc(O)c1Cc1ccc(C(=O)O)o1 [CBK266284]	104
Cc1ccc(-c2cc(C(=O)N(C)CC3(C)COC3)[nH]n2)cc1 [CBK281717]	90.9
CCN1CCN(C(=O)c2cccc3[nH]ccc23)CC1 [CBK200246]	110
O=C(O)CC1(O)C(=O)N(Cc2ccccc2)c2ccccc21 (stereo not shown) [CBK286673]	104
N#Cc1cccnc1N1CCC(NC(=O)Cn2cccnc2=O)CC1 [CBK307275]	95.7

Structure (SMILES)	viability at 28.5 h, 10 µM [%]
O=C(Nc1sc2c(c1C(=O)NCCc1ccccc1)CCC2)c1sc2ccccc2c1Cl [CBK266379]	105
Cc1cnoc1-c1cc(Cl)cc(Cl)c1O [CBK015870]	89.3
COc1ccc(/C=C/C(C)=C\C(=O)O)c(OC)c1 [CBK262237N]	94.8
Cc1ccc(-c2nnc(N3CCN(S(=O)(=O)c4ccc(Cl)cc4)CC3)c3ccccc23)cc1 [CBK266759]	96.1
O=C(N[C@H]1CO[C@H]2[C@@H]1OC[C@@H]2n1cc(CC2CCCCC2)nn1)C1CC1 [CBK289509]	92.2
CN(CCCNC(=O)/C=N/O)CCCC(C)(C)C [CBK288480]	110
CCc1nc2ccc(C(=O)N(C)Cc3ccccc3)cn2c1N(C=O)CC [CBK145936]	102
CCCS(=O)(=O)NC(C)c1cnn(-c2ccc(OC)cc2)c1C (stereo not shown) [CBK307319]	115
O=C(NCc1nnc(-c2cccs2)o1)C1(c2cccc(F)c2)CC1 [CBK284639]	90.2
N#C/C(=C\c1ccc(N2CCN(c3ccc(F)cc3)CC2)c([N+](=O)[O-])c1)c1nn(-c2ccccc2)c(N)c1C#N [CBK267927]	95.7
O=C1CCC(=O)N1CCOc1nccnc1N1CCN(CC2CC2)CC1 [CBK084305]	93.9
COCCC(=O)N1C[C@@H](c2cccc(F)c2)[C@@]2(CCCC(=O)N2)C1 [CBK283450]	88.1
c1ccc(OCCCCN2CCCC23CCc2[nH]c4ccccc4c2C3)cc1 (stereo not shown) [CBK092200T]	89.8
CN(C)c1ccc(-c2nnnn2[C@H]2CO[C@H]3[C@@H]2OC[C@H]3O)cc1 [CBK289481]	76.7
O=C(O)c1cc(S(=O)(=O)Nc2ccc(OCc3ccccc3)cc2)ccc1Br [CBK297098]	113
O=C1N=C(NC2CCCCCC2)SC1Cc1ccc(O)cc1 (stereo not shown) [CBK067868]	109
O=C(CN1CCCCC1)Nc1sc2c(c1C(=O)Nc1ccccc1)CCCC2 [CBK267974]	104
CC(=O)Nc1nc(C(=O)N2CCOC(c3ccc(F)cc3)C2)cs1 (stereo not shown) [CBK244238]	99.3
Cc1cc(=O)oc2cc(SCc3ccc(SC(F)(F)F)cc3)ccc12 [CBK002897]	97.6
Cc1nc2ncnc(N3CCc4ccccc43)c2[nH]1 [CBK291228]	89.2
Cc1ccc(C)c(C2CCCN2C(=O)c2ccc(=O)n(CC(=O)N(C)c3ccccc3)c2)c1 (stereo not shown) [CBK285654]	97.5
Nc1cc2cccnc2nc1-c1cc(F)cc(F)c1 [CBK067604]	88.3

Structure (SMILES)	viability at 28.5 h, 10 µM [%]
Cc1c(C(=O)NC(Cc2cccs2)c2nccs2)cnn1C (stereo not shown) [CBK285053]	97.1
O=C(CN1C(=O)N2CCCN=C2c2ccc(Cl)cc21)N1CCCC1 [CBK284387]	78.7
COc1ccc(C2N(N3C(=O)CC(=O)NC3=O)C(=O)CS2(=O)=O)cc1OC (stereo not shown) [CBK012702]	94.8
COc1ccc(CCCC(=O)NC2CCCCC2C)cc1 (stereo not shown) [CBK026124]	94.3
N#Cc1cnn(-c2ccc(Cl)cc2Cl)c1N [CBK086125]	89.2
CCn1c(C)nc2cc(C(=O)NC3CCCOC3)ccc21 (stereo not shown) [CBK282066]	92.5
Nc1nc2n(c1C(=O)c1ccc(Cl)cc1)CCC2 [CBK288194]	92.5
CCn1cc(NC(=O)CCn2c(C(F)F)cc3cccnc32)cn1 [CBK282769]	97.1
CSc1ccc([C@H]2[C@H](C(=O)O)CC(=O)N2Cc2ccccc2)cc1 [CBK286934]	91.7
CS(=O)(=O)Nc1cc(-c2noc([C@@H]3CCCN3Cc3ccc(S(C)(=O)=O)cc3)n2)ccn1 [CBK288890]	90.7
COC(=O)COc1ccc2cccc(-n3cnnn3)c2c1 [CBK270173]	84.7
c1nc(OCCN2CCOCC2)cc(N2CCCNCC2)n1 [CBK085466]	86.2
CCOC(=O)C1CSCN1C(=O)c1cnn(C(CC)CC)c1C (stereo not shown) [CBK304759]	106
O=C(Cc1cc(Cl)ccc1C(F)(F)F)NCCc1c[nH]c2ccc(Cl)cc12 [CBK159759]	80.2
COC(C)c1nc(C)c(C(=O)NC2CCCN(c3ccn(C)n3)C2=O)s1 (stereo not shown) [CBK305454]	100
O=c1[nH]nc2c(Sc3cccc(F)c3)nccn12 [CBK288508]	90.4
COc1ccccc1CC(C)NC(=O)c1ccc2nc(C)[nH]c2c1 (stereo not shown) [CBK283261]	86.1
Cc1cc(C(=O)O)c(C)cc1N [CBK022781]	95.5
COc1ccc(C2CC(c3ccccc3)=NN2c2ccc(S(N)(=O)=O)cc2)cc1OC (stereo not shown) [CBK268193]	107
CC(C)(C)OC(=O)N1CCN(c2ccnc(N)n2)CC1 [CBK003529]	99.4
CN(Cc1cccnc1)C(=O)CSC(c1ccccc1)c1ccccc1 [CBK298284]	90.7
O=C(Cc1ccccc1)Nc1ccc2[nH]ncc2c1 [CBK288211]	104

Structure (SMILES)	viability at 28.5 h, 10 µM [%]
O=C(O)c1cc2oc3ccccc3c3ccccc3oc2cc1C(=O)Nc1cccc([N+](=O)[O-])c1 [CBK265500]	99.1
c1csc(-c2ccn3c(n2)nc2ccccc23)c1 [CBK287976]	83.9
COc1cc(/C=N/NC(=O)CCc2c(C)n[nH]c2C)ccc1O [CBK262925]	90.1
O=C(c1ccc(OC(F)F)cc1)N1CCCc2cc(S(=O)(=O)N3CCCCC3)ccc21 [CBK295621]	118
Cc1ccc(C(C)C)c(OCc2ccc(C(=O)Nc3ccc(S(N)(=O)=O)cc3C)o2)c1 [CBK265833]	96.3
O=C(Nc1ncc(-c2ccccc2)s1)c1cccc([N+](=O)[O-])c1 [CBK157055]	92.7
CN1CCN(Cc2c(O)ccc3c(=O)c(-c4ccc(Cl)cc4)coc23)CC1 [CBK263314]	102
Cc1ccc(-c2nc3ncccc3o2)cc1NC(=S)NC(=O)c1ccc(-c2cccc([N+](=O)[O-])c2)o1 [CBK268294]	102
O=C(Nc1ccc2ncccc2c1)c1ccc(OC(F)(F)F)cc1 [CBK159815]	90.9
CNC(=O)C1(C)CCCN1C(=O)c1cc2cc(C)ccc2n1C (stereo not shown) [CBK281375]	86.1
COCCn1c(CN2CCCC(C)C2)nc2c1c(=O)n(C)c(=O)n2C (stereo not shown) [CBK306063]	108
CCCC/C=C/c1cncc(NC2CCC(O)CC2)n1 (stereo not shown) [CBK037840]	105
CC(O)CN(CC(C)O)CC1CC2C=CC1C2 (stereo not shown) [CBK261896]	90.4
Cn1cc(CCCNC(=O)c2cccc(CN3CCCCCC3)c2)cn1 [CBK306906]	93.7
COc1ccccc1C1(O)CCN(CC(O)c2ccc3c(c2)OCCO3)CC1 (stereo not shown) [CBK286482]	90.1
O=C(O)c1ccc(NC(=O)c2cn(-c3ccccc3)nc2-c2cccnc2)cc1 [CBK296122]	102
O=C(c1cccnc1)N1CCCC(c2cc3ccccc3cn2)C1 (stereo not shown) [CBK285154]	98.6
COc1ccc(-c2cc(C3CCN(C(=O)C4CC4)C3)[nH]n2)cc1 (stereo not shown) [CBK285263]	91.5
CCCc1oc(C(=O)O)cc1CN(CC)CC [CBK267943C]	92.1
CCc1c(C)nc2c(-c3ccc(OC)c(OC)c3)cnn2c1O [CBK287962]	87
CCCn1ncc(CN2CCC(c3cc4cccnc4[nH]3)CC2)c1C [CBK284949]	97.2

Same assay, conditions: human, hela cells, % viability, bulk resorufin, single well

Structure (SMILES)	viability at 28.5 h, 10 µM [%]
Cc1ccc(Cl)cc1N1C(=O)NC(=O)C(CCc2ccccn2)(CCc2ccccn2)C1=O [CBK268838]	98.6
